Experimental findings from article PMC8436246 (ACS Medicinal Chemistry Letters, 2021) are described below.

Series [1] relates to EMT6 tumor-implanted BALB/c mice. Briefly: pharmacokinetic-pharmacodynamic experiments in EMT6 tumor-bearing BALB/c mice. The series is classed as in vivo.
Series [2] in a line: mouse pharmacokinetic study, oral bioavailability. It counts as in vivo, C57BL/6 mice.
A short description of series [3]: in vitro stability in mouse hepatocytes. The series is classed as in vitro ADME.

As for `O=C(O)[C@H]1NCC[C@H]1CCCB(O)O` [Compound 4a], the “serum and tumor arginine levels” value in series [1] (30, 100, 300 mpk BID p.o., 1 h after fourth dose, vs saline control) is given as “substantially elevated”. For the same compound, in series [1] (p.o. 250 mpk BID, 14 day, ± mDX400 i.p. 5 mpk Q5D), the “pharmacodynamic effects on serum and tumor arginine levels with or without codosing of mDX400” value was “comparable pharmacodynamic effects”. The “tolerability / body weight” value in series [1] (p.o. 250 mpk BID, alone and with mDX400 (i.p. 5 mpk Q5D), 14 day repeated dosing) was “well tolerated”.
Turning to `C[C@H](N)C(=O)N[C@H]1CN[C@H](C(=O)O)[C@@H]1CCCB(O)O` [Compound 23], the “combined exposures of 18 and 23 (% F)” value in series [2] (23 dosed orally, 10 mpk, mouse) turned out to be 27 % F. Besides, the clearance entry in series [2] (mouse pharmacokinetic experiments) is listed as “rapid clearance”.
As for `CC(C)[C@H](N)C(=O)N[C@H]1CN[C@H](C(=O)O)[C@@H]1CCCB(O)O` [Compound 24a], in series [3], the metabolic stability entry is reported as “good metabolic stability was not achieved”.
